Measured values as given in patent US20020120008A1, “Life extension of drosophila by a drug treatment” (priority 2000, published 2002).

What was measured:
Drosophila [1] = experiment: Locomotor activity, negative geotaxis in counter current distribution apparatus; assay type: in vivo, Drosophila melanogaster; settings: old flies, FIG. 3A
Protocol: Life extension without maintaining physical or mental vigor is undesirable. To examine whether the life span increase by PBA is associated with extended maintenance of vigor, the locomotor activity was measured for young and old flies raised with and without PBA treatment. A known assay of negative geotaxis in a counter current distribution apparatus was measured the locomotor activity of the flies (Benzer, S. Proc. Natl. Acad. Sci. U.S.A. 58, 1112-1119 (1967); FIG. 3A).

Drosophila [2] = experiment: Resistance to paraquat induced stress (survival); assay type: in vivo, Drosophila melanogaster; settings: sucrose solution containing 20 mM paraquat, FIG. 3C
Protocol: (§1) Stress to an animal can be achieved by starvation or an increase production of free radicals. The effective removal of free radicals or the increase of antioxidant levels reduce stress to the animal and are important in slowing down the ageing process. The failure to repair oxidative damages and the elevation of free radial is known to shorten the life span of animal. Therefore, resistance to stress was measured in PBA fed flies by measuring if they have an increase resistance to the free radical generator, paraquat, and to dry starvation. PBA treated and control flies drank sucrose solution containing 20 mM paraquat were tested for duration of life span (e.g. survival) (FIG. 3C). […] PBA treated and control flies were also put into empty vials to measure their survival on dry starvation (FIG. 3B).

Drosophila [3] = experiment: Food intake (food dye in alimentary tract), caloric restriction test; assay type: in vivo, Drosophila melanogaster; settings: overnight feeding, ten flies per group
Protocol: (§2) Caloric restriction increases life span in rodents, worms, and yeast (Guarente, L & Kenyon, C. Nature 408, 255-262 (2000)). Although PBA is odorless and tasteless to human, flies may dislike the smell or taste of the drug, which may cause caloric restriction. To test the issue of possible caloric restriction effects, the intake of food was measured by adding food dye to both the control and PBA containing media. After an overnight feeding, the alimentary tracts of ten flies from each group were dissected out and examined for color. No difference in the alimentary tract of these flies was discernible. Further, the weight and size of the flies were measured after ten days of feeding with or without PBA (Table 1). […] Therefore, the extension of life span observed in Drosophila fed PBA is most likely not due to caloric restriction.

histones H3 and H4 = experiment: Histone acetylation level by western blot in flies fed PBA; assay type: in vivo, Drosophila melanogaster; settings: flies fed PBA versus untreated, FIG. 4A and 4B
Text: PBA, an inhibitor of histone deacetylase, is known to enhance acetylation in the tails of histones H3 and H4, which causes the tails to be released from the DNA (Lea et al. Induction of Histone Acetylation and Growth Regulation in Erythroleukemia Cells by 4-phenylbutyrate and Structural Analogs Anticancer Research 19:1971-1976 (1999)). The acetylation of histones changes the binding affinity between histones and DNA, and leads genes to recruit transcription factors and undergo transcription. Using western blots stained with specific antibodies, the level of histone acetylation was measured in Drosophila, with and without PBA treatment. Batches of 100 flies (males+females) were used to prepare histones (Alfageme, C. R., Zweidler, A., Mahowald, A. & Cohen, L. H. Histones of Drosophila embryos J. Biol. Chem. 12, 3729-3736 (1974)). The homogenates of whole flies were centrifuged at 2,500×g for 10 min in a medium containing 0.05 M glycine, 10 mM Tris potassium maleate, 5 mM MgCl2, 10 mM mercaptoethanol, pH 7.3. Isolated nuclei were used to extract histones by HCl treatment. 10 μg samples of histone protein were loaded on a 16.5% polyacrylamide gel for electrophoresis, then transferred to a PVDF membrane (Immobilin-P transfer membrane, Millipore, Bedford, Mass.), followed by hybridization with antibodies to acetylated and nonacetylated H3 and H4 (Upstate Biotechnology, Lake Placid, N.Y.).

Drosophila [4] = experiment: Reproductive activity of Drosophila fed PBA (eggs, adult progeny, progeny weight and size); assay type: in vivo, Drosophila melanogaster
Protocol: (§3) Table 1 is a comparison of weight, size and reproductive ability of Drosophila raised on food with and without 10 mM PBA for 10 days at 25° C., as described in Example 1, infra.
Reproductive signaling in C. elegans and Drosophila also contribute to extend life span (Guarente, L & Kenyon, C. Nature 408, 255-262 (2000)). PBA treatment may slow down reproduction of flies and thus results in the extension of life span. The role of PBA on the reproductive activity of female Drosophila was examined by counting the number of eggs layed, the percentage of eggs yielding adult progeny, and the weight and size of the progeny.

histone deacetylase = settings: Lea & Randolph 1998; cited from earlier work
Drosophila [5] = experiment: Weight and size of flies fed PBA; assay type: in vivo, Drosophila melanogaster
Protocol: as §3, §2

Drosophila [6] = experiment: Life span of Drosophila fed PBA early or late in life; assay type: in vivo, Drosophila melanogaster
Drosophila [7] = experiment: Survival on dry starvation; assay type: in vivo, Drosophila melanogaster; settings: empty vials, FIG. 3B
Protocol: as §1

Drosophila [8] = experiment: Life span of Drosophila fed various concentrations of PBA; assay type: in vivo, Drosophila melanogaster
transcription levels = experiment: Verification of changes in transcription levels (RT-PCR / Northern); settings: 10 mM PBA, 10 days, 29° C.
Protocol: In another embodiment of the invention RT-PCR was be used to verify the changes in transcription levels seen by the difference in hybridization on the membrane arrays. Newly emerged adult flies (males+females) were fed food containing 10 mM PBA, or plain food for 10 days at 29° C., then total RNA was extracted and used to synthesize cDNA. For each PCR reaction, 50 ng of cDNA was used. Primers were designed from the sequence of each gene to detect fragments of between 300 and 600 base pairs (Table 4). PCR reactions were performed with 30 cycles of 94° C. for 1 minute, 55° C. for 1 minute, and 72° C. for 1 minute.
Biochem. Biophys. 301, 34-40 (1993)). Elongation factor1-alpha plays a critical role in maintaining the level of protein synthesis, which normally declines with age (Webster, G. C. & Webster, S. L. Specific disappearance of translatable messenger RNA for elongation factor one in aging Drosophila melanogaster. Mech. Ageing Devel. 24, 335-342). […] Heat shock proteins enhance resistance to stress and extend life span (Tatar, M., Khazaeli, A. A. & Curtsinger, J. W. Chaperoning extended life. Nature 390, 30 (1997); Lithgow, G. J. Temperature, stress response and aging. Rev. Clin. Gerontol. 6, 119-127 (1996)).

Drosophila EST clones = experiment: Differential gene expression on high density membrane arrays; assay type: in vivo, Drosophila melanogaster; settings: 10 mM PBA, 10 days, 29° C.
Protocol: To investigate the differential pattern of gene activity resulting from PBA treatment, high density membrane arrays containing about 27,000 Drosophila EST clones (Research Genetics, Huntsville, Tenn.) were used. Messenger RNA was prepared from either 10 day old flies that had been treated with 10 mM PBA at 29° C. from emergence onward. A similar preparation was made from untreated flies. These RNA preparations were used as probes on the membrane arrays.
The Smart PCR cDNA synthesis kit (Clontech, Palo Alto, Calif.) was used to synthesize probes for hybridization. Total RNA was prepared from flies (males+females) fed for 10 days at 29° C. with medium containing 10 mM PBA or plain medium. After first strand synthesis of cDNAs by MMLV reverse transcriptase (M-MLV reverse transcriptase, Boehringer Mannheim, Indianapolis, Ind.), the cDNA was amplified by polymerase chain reaction (PCR). The reaction consisted of 95° C. for 1 minute, then 24 cycles of 95° C. for 15 seconds, 65° C. for 30 seconds, and 68° C. for 6 minutes. Probes were prepared by a random primed DNA labeling method with p^32. Filters containing 27,000 Drosophila EST clones (Research Genetics, Huntsville, Tenn.) were prehybridized for 4 hours, then probes were added to hybridize for 16 hours at 58° C. in a buffer containing 1 M NaCl, 0.05M Tris (pH 8.0), 5 mM EDTA, 1% SDS, and 10% Dextran Sulfate. […]

[9] = progeny of flies raised on 10 mM PBA, n = 10
[10] = progeny of flies raised on 10 mM PBA, n = 40
[11] = 10 mM PBA, 10 days, 25° C., n = 10
[12] = 10 mM PBA, 10 days, 25° C., n = 40
[13] = w^118 flies, medium containing 10 mM PBA, 29° C. (FIG. 1A)

O=C([O-])CCCc1ccccc1.[Na+] [PBA, 4-phenylbutyric acid, sodium salt]
climbing ability (locomotor activity) (Drosophila [1]): enhanced the climbing ability of old flies significantly | survival under paraquat induced stress (Drosophila [2]): survived much longer | intake of food (colour of alimentary tract) (Drosophila [3]): No difference | acetylation of histones H3 and H4 (histones H3 and H4): increase of acetylated H3 and H4 | egg laying (Drosophila [4]; 3 males + 3 females a vial for 16 hrs, n = 20 vials, 10 mM PBA, 10 days, 25° C.): 70 ± 16 | effect on reproductive activity of female flies (Drosophila [4]; all measurements of Table 1): no detrimental effect | % of eggs yielding adults (Drosophila [4]; n = 20 vials, 10 mM PBA, 10 days, 25° C.): 70 ± 16% | weight of 5 flies, progeny females (Drosophila [4]; [9]): 5.2 ± 0.2 mg | weight of 5 flies, progeny males (Drosophila [4]; [9]): 3.5 ± 0.3 mg | size of fly, progeny female (Drosophila [4]; [10]): 5.5 ± 0.1 mm | size of fly, progeny male (Drosophila [4]; [10]): 4.6 ± 0.2 mm | activity on histone deacetylase (histone deacetylase): inhibits the activity of histone deacetylase | weight of 5 flies, parent females (Drosophila [5]; [11]): 5.1 ± 0.2 mg | weight of 5 flies, parent males (Drosophila [5]; [11]): 3.3 ± 0.4 mg | size of fly, parent female (Drosophila [5]; [12]): 5.5 ± 0.1 mm | size of fly, parent male (Drosophila [5]; [12]): 4.6 ± 0.1 mm | weight and size of the flies versus control (Drosophila [5]; after ten days of feeding with or without PBA): no differences were observed | life span compared with untreated flies (Drosophila [6]; PBA from emergence to 12 days, then plain medium): increased life span compared with untreated flies | life span compared with untreated flies (Drosophila [6]; plain medium for first 12 days, then PBA for remainder of life): increased life span compared with untreated flies | treatment initiated at later age versus young age (Drosophila [6]; virgin female flies (not in males), FIG. 2A): even more effective than the same duration of treatment at young age | resistance to dry starvation (Drosophila [7]): enhanced the resistance to starvation | life span compared to same strain fed on fly medium (Drosophila [8]; Canton-S strain, 10 mM PBA (FIG. 1C)): extended life span | effect on longevity (Drosophila [8]; w^118 flies, lower concentrations of PBA (0.1, 1, 2.5, 5 mM)): no effect on longevity | extension in maximum life span (Drosophila [8]; [13]): 60% | extension in median life span (Drosophila [8]; [13]): about 35% | Fold-change, cytochrome P450-4d1 (CG3656) (transcription levels; induced): 7.2 fold | Fold-change, daughterless (CG5102) (transcription levels; induced): 8.0 fold | Fold-change, dnaJ like2 (CG3061) (transcription levels; induced): 2.9 fold | Fold-change, epididymal secretory protein (CG7291) (transcription levels; induced): 7.5 fold | Fold-change, glutathione S transferase (CG10045) (transcription levels; induced): 4.6 fold | Fold-change, hsc70 (CG4264) (transcription levels; induced): 4.5 fold | Fold-change, hsp60 (CG12101) (transcription levels; induced): 6.7 fold | Fold-change, imaginal disc growth factor1 (CG4472) (transcription levels; induced): 5.3 fold | Fold-change, inebriated (CG15444) (transcription levels; induced): 26.8 fold | Fold-change, mitochondrial phosphate carrier protein (CG4994) (transcription levels; induced): 5.1 fold | Fold-change, superoxide dismutase (CG8905) (transcription levels; induced): 51.9 fold | Fold-change, translational elongation factor1 α (CG8280) (transcription levels; induced): 4.1 fold | Fold-change, transportin (CG7398) (transcription levels; induced): 8.0 fold | Fold-Change, NADH:ubiquinone reductase 75kD subunit precursor (CG2286) (transcription levels; repressed): 25.3 fold | Fold-Change, calreticulin (GH25160) (transcription levels; repressed): 26.5 fold | Fold-Change, cyclin-dependent kinase9 (GH21935) (transcription levels; repressed): 2.7 fold | Fold-Change, cytochrome c oxidase (FBgn0013674) (transcription levels; repressed): 6.6 fold | Fold-Change, cytochrome c oxidase subunit Vlb (CG14235) (transcription levels; repressed): 2.2 fold | Fold-Change, dnaJ like1 (CG10578) (transcription levels; repressed): 13.2 fold | Fold-Change, fatty acid synthetase (CG3523) (transcription levels; repressed): 2.4 fold | Fold-Change, glyceraldehyde 3 phosphate dehydrogenase1 (CG12055) (transcription levels; repressed): 3.7 fold | Fold-Change, hexokinase (CG3001) (transcription levels; repressed): 5.0 fold | Fold-Change, osa (GH03026) (transcription levels; repressed): 5.0 fold | Fold-Change, peptidyl glycine α hydroxylating monooxygenase (CG3832) (transcription levels; repressed): 1.4 fold | Fold-Change, peroxisomal farnesylated protein (GH03076) (transcription levels; repressed): 1.8 fold | Fold-Change, porin (GH08586) (transcription levels; repressed): 1.4 fold | number of genes strongly induced (Drosophila EST clones): One hundred | number of genes suppressed (Drosophila EST clones; disappearance of a visible spot): 48
